Experimental data as given in the supplement of paper PMC9663587.

Assays:
Assay in all cases: GRmax, 72 h; higher = less effect;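 also: breast cell lines in 384-well plates, nine doses across a 10^4 range, Dye Drop imaging of viable cells vs DMSO and time-zero plates, GR 0 means no net growth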
HCC38 = tested on: HCC38
HCC1937 = tested on: HCC1937
PDXHCI002 = tested on: PDXHCI002
HCC1395 = tested on: HCC1395
SUM190PT = tested on: SUM190PT
SUM149 = tested on: SUM149
CAL851 = tested on: CAL851
SUM1315 = tested on: SUM1315
UACC893 = tested on: UACC893
MDAMB436 = tested on: MDAMB436
HTERT_HME1 = tested on: HTERT_HME1

## COc1cccc(OCCCN)c1-c1cc(Nc2cnc(C#N)cn2)n[nH]1
HCC38
  GRmax, 72 h: -0.556 GR
HCC1937
  GRmax, 72 h: 0.0059 GR
PDXHCI002
  GRmax, 72 h: 0.705 GR
HCC1395
  GRmax, 72 h: -0.491 GR
SUM190PT
  GRmax, 72 h: -0.101 GR
SUM149
  GRmax, 72 h: -0.453 GR
CAL851
  GRmax, 72 h: 0.0306 GR
SUM1315
  GRmax, 72 h: -0.419 GR
UACC893
  GRmax, 72 h: 0.365 GR
MDAMB436
  GRmax, 72 h: 0.0078 GR
HTERT_HME1
  GRmax, 72 h: -0.0816 GR

## Cc1nc(NC(=O)N2CCC[C@H]2C(N)=O)sc1-c1ccnc(C(C)(C)C(F)(F)F)c1 [Alpelisib/BYL719] (max 10 µM)
HCC38
  GRmax, 72 h: 0.68 GR
HCC1937
  GRmax, 72 h: 0.658 GR
PDXHCI002
  GRmax, 72 h: 0.63 GR
HCC1395
  GRmax, 72 h: 0.637 GR
SUM190PT
  GRmax, 72 h: 0.532 GR
SUM149
  GRmax, 72 h: 0.848 GR
CAL851
  GRmax, 72 h: 0.293 GR
SUM1315
  GRmax, 72 h: 0.383 GR
UACC893
  GRmax, 72 h: -0.757 GR
MDAMB436
  GRmax, 72 h: 0.725 GR
HTERT_HME1
  GRmax, 72 h: 0.307 GR

## CC(=O)c1c(C)c2cnc(Nc3ccc(N4CCN(CCOCCOCCOCCNC(=O)COc5cccc6c5C(=O)N(C5CCC(=O)NC5=O)C6=O)CC4)cn3)nc2n(C2CCCC2)c1=O (stereo unspecified) [BSJ-03-123] (max 10 µM)
HCC38
  GRmax, 72 h: -0.0999 GR
HCC1937
  GRmax, 72 h: 0.493 GR
PDXHCI002
  GRmax, 72 h: -0.0835 GR
HCC1395
  GRmax, 72 h: -0.171 GR
SUM190PT
  GRmax, 72 h: -0.279 GR
SUM149
  GRmax, 72 h: -0.0089 GR
CAL851
  GRmax, 72 h: -0.208 GR
SUM1315
  GRmax, 72 h: 0.236 GR
UACC893
  GRmax, 72 h: 0.289 GR
MDAMB436
  GRmax, 72 h: -0.0126 GR
HTERT_HME1
  GRmax, 72 h: -0.153 GR

## CC(=O)c1c(C)c2cnc(Nc3ccc(N4CCNCC4)cn3)nc2n(C2CCCC2)c1=O (max 3.162 µM)
HCC38
  GRmax, 72 h: 0.147 GR
HCC1937
  GRmax, 72 h: 1.08 GR
PDXHCI002
  GRmax, 72 h: 0.277 GR
HCC1395
  GRmax, 72 h: 0.348 GR
SUM190PT
  GRmax, 72 h: 0.347 GR
SUM149
  GRmax, 72 h: 0.485 GR
CAL851
  GRmax, 72 h: 1.08 GR
SUM1315
  GRmax, 72 h: 0.3 GR
UACC893
  GRmax, 72 h: 0.344 GR
MDAMB436
  GRmax, 72 h: 1.06 GR
HTERT_HME1
  GRmax, 72 h: 0.257 GR

## CS(=O)(=O)N1CCN(Cc2cc3nc(-c4cccc5[nH]ncc45)nc(N4CCOCC4)c3s2)CC1 [Pictilisib/GDC0941] (max 10 µM)
HCC38
  GRmax, 72 h: 0.357 GR
HCC1937
  GRmax, 72 h: 0.278 GR
PDXHCI002
  GRmax, 72 h: -0.0101 GR
HCC1395
  GRmax, 72 h: -0.0143 GR
SUM190PT
  GRmax, 72 h: 0.0145 GR
SUM149
  GRmax, 72 h: 0.341 GR
CAL851
  GRmax, 72 h: -0.0252 GR
SUM1315
  GRmax, 72 h: 0.13 GR
UACC893
  GRmax, 72 h: -0.878 GR
MDAMB436
  GRmax, 72 h: 0.285 GR
HTERT_HME1
  GRmax, 72 h: 0.126 GR

## Cc1cc(Nc2ncc(Cl)c(Nc3ccccc3S(=O)(=O)C(C)C)n2)c(OC(C)C)cc1C1CCNCC1 [Ceritinib/LDK378] (max 10 µM)
HCC38
  GRmax, 72 h: -0.404 GR
HCC1937
  GRmax, 72 h: -0.573 GR
PDXHCI002
  GRmax, 72 h: -0.634 GR
HCC1395
  GRmax, 72 h: -0.627 GR
SUM190PT
  GRmax, 72 h: -0.375 GR
SUM149
  GRmax, 72 h: -0.438 GR
CAL851
  GRmax, 72 h: -0.596 GR
SUM1315
  GRmax, 72 h: -0.765 GR
UACC893
  GRmax, 72 h: 0.807 GR
MDAMB436
  GRmax, 72 h: -0.697 GR
HTERT_HME1
  GRmax, 72 h: -0.356 GR

## CC(=O)Nc1cccc(-n2c(=O)n(C3CC3)c(=O)c3c(Nc4ccc(I)cc4F)n(C)c(=O)c(C)c32)c1 (max 1 µM)
HCC38
  GRmax, 72 h: 0.185 GR
HCC1937
  GRmax, 72 h: 0.689 GR
PDXHCI002
  GRmax, 72 h: 0.642 GR
HCC1395
  GRmax, 72 h: 0.45 GR
SUM190PT
  GRmax, 72 h: 0.744 GR
SUM149
  GRmax, 72 h: 0.237 GR
CAL851
  GRmax, 72 h: 0.234 GR
SUM1315
  GRmax, 72 h: 0.133 GR
UACC893
  GRmax, 72 h: -0.0662 GR
MDAMB436
  GRmax, 72 h: 0.557 GR
HTERT_HME1
  GRmax, 72 h: 0.203 GR

## CC[C@@]1(O)C(=O)OCc2c1cc1n(c2=O)Cc2cc3c(CN(C)C)c(O)ccc3nc2-1 [Topotecan] (max 10 µM)
HCC38
  GRmax, 72 h: -0.504 GR
HCC1937
  GRmax, 72 h: -0.428 GR
PDXHCI002
  GRmax, 72 h: -0.701 GR
HCC1395
  GRmax, 72 h: -0.584 GR
SUM149
  GRmax, 72 h: -0.46 GR
CAL851
  GRmax, 72 h: -0.296 GR
SUM1315
  GRmax, 72 h: -0.332 GR
MDAMB436
  GRmax, 72 h: -0.14 GR
HTERT_HME1
  GRmax, 72 h: -0.34 GR

## CCNC(=O)c1noc(-c2cc(C(C)C)c(O)cc2O)c1-c1ccc(CN2CCOCC2)cc1 [Luminespib/NVP-AUY922] (max 1 µM)
HCC38
  GRmax, 72 h: -0.209 GR
HCC1937
  GRmax, 72 h: -0.187 GR
PDXHCI002
  GRmax, 72 h: -0.281 GR
HCC1395
  GRmax, 72 h: -0.152 GR
SUM190PT
  GRmax, 72 h: -0.433 GR
SUM149
  GRmax, 72 h: -0.392 GR
CAL851
  GRmax, 72 h: -0.384 GR
SUM1315
  GRmax, 72 h: -0.081 GR
UACC893
  GRmax, 72 h: -0.898 GR
MDAMB436
  GRmax, 72 h: -0.0492 GR
HTERT_HME1
  GRmax, 72 h: -0.335 GR

## COc1cc2nccc(Oc3ccc(NC(=O)C4(C(=O)Nc5ccc(F)cc5)CC4)cc3)c2cc1OC [Cabozantinib] (max 10 µM)
HCC38
  GRmax, 72 h: 0.301 GR
HCC1937
  GRmax, 72 h: 0.76 GR
PDXHCI002
  GRmax, 72 h: 0.234 GR
HCC1395
  GRmax, 72 h: 0.114 GR
SUM190PT
  GRmax, 72 h: -0.0122 GR
SUM149
  GRmax, 72 h: 0.3 GR
CAL851
  GRmax, 72 h: 0.173 GR
SUM1315
  GRmax, 72 h: 0.11 GR
UACC893
  GRmax, 72 h: 0.735 GR
MDAMB436
  GRmax, 72 h: 0.0862 GR
HTERT_HME1
  GRmax, 72 h: -0.105 GR

## NC(=O)Nc1cc(-c2cccc(F)c2)sc1C(=O)N[C@H]1CCCNC1 [AZD7762] (max 10 µM)
HCC38
  GRmax, 72 h: -0.334 GR
HCC1937
  GRmax, 72 h: -0.362 GR
PDXHCI002
  GRmax, 72 h: -0.582 GR
HCC1395
  GRmax, 72 h: -0.69 GR
SUM190PT
  GRmax, 72 h: -0.341 GR
SUM149
  GRmax, 72 h: -0.477 GR
CAL851
  GRmax, 72 h: -0.322 GR
SUM1315
  GRmax, 72 h: -0.653 GR
UACC893
  GRmax, 72 h: -0.308 GR
MDAMB436
  GRmax, 72 h: -0.281 GR
HTERT_HME1
  GRmax, 72 h: -0.478 GR

## CN(C)C(=O)c1cc2cnc(Nc3ccc(N4CCNCC4)cn3)nc2n1C1CCCC1 [LEE011/Ribociclib] (max 10 µM)
HCC38
  GRmax, 72 h: 0.241 GR
HCC1937
  GRmax, 72 h: 1.03 GR
PDXHCI002
  GRmax, 72 h: 0.508 GR
HCC1395
  GRmax, 72 h: 0.403 GR
SUM190PT
  GRmax, 72 h: 0.199 GR
SUM149
  GRmax, 72 h: 0.605 GR
CAL851
  GRmax, 72 h: 1.04 GR
SUM1315
  GRmax, 72 h: 0.444 GR
UACC893
  GRmax, 72 h: 0.469 GR
MDAMB436
  GRmax, 72 h: 0.951 GR
HTERT_HME1
  GRmax, 72 h: 0.292 GR

## COc1cccc2c1C(=O)c1c(O)c3c(c(O)c1C2=O)C[C@@](O)(C(=O)CO)C[C@@H]3O[C@H]1C[C@H](N)[C@H](O)[C@H](C)O1 [Doxorubicin] (max 3.162 µM)
HCC38
  GRmax, 72 h: -0.406 GR
HCC1937
  GRmax, 72 h: -0.166 GR
PDXHCI002
  GRmax, 72 h: -0.654 GR
HCC1395
  GRmax, 72 h: -0.417 GR
SUM190PT
  GRmax, 72 h: -0.123 GR
SUM149
  GRmax, 72 h: -0.321 GR
CAL851
  GRmax, 72 h: -0.378 GR
SUM1315
  GRmax, 72 h: -0.0635 GR
UACC893
  GRmax, 72 h: -0.405 GR
MDAMB436
  GRmax, 72 h: -0.129 GR
HTERT_HME1
  GRmax, 72 h: -0.399 GR
